What was measured:
[1] = target: T1, Human Polymorphonuclear Leukocyte Elastase (Homo sapiens, UniProt P08246); test: Inhibition of human polymorphonuclear leukocyte elastase via hydrolysis of Boc-AAPAN or Boc-AAPVN; assay type: biochemical; conditions: second order rate constant for inactivation of the enzyme; crude human PMN extract, pH 7.5; to the nearest thousand; read-out: Kobs/[I]
T1 construct: Crude extract of human polymorphonuclear leukocytes (PMN) containing elastase activity; from tissue; host or cells: human polymorphonuclear leukocytes (crude extract)
T1 sequence (P08246 30-267): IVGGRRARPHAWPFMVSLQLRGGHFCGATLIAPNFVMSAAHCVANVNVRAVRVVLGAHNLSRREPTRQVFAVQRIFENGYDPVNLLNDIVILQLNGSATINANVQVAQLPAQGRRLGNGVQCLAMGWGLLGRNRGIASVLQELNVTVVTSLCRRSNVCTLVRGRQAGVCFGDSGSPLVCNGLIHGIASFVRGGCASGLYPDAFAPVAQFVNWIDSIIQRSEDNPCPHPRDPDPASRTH
Description: Enzyme Assays for the Inhibition of Human Polymorphonuclear Leukocyte Elastase Via Hydrolysis of N-t-Boc-alanyl-alanyl-prolylalanine-p-nitroanilide (Boc-AAPAN) or N-t-Boc-alanyl-[…] (Boc-AAPVN) Reagent: • 0.05M TES (N-tris[hydroxymethyl]methyl-2-mino-ethanesulfonic acid) Buffer, pH 7.5. 0.2 mM Boc-AAPAN or Boc-AAPVN.
To prepare substrate, the solid was first dissolved in 10.0 ml DMSO. Buffer at pH 7.5 was then added to a final volume of 100 ml.
Crude extract of human polymorphonuclear leukocytes (PMN) containing elastase activity.
Inhibitors (azetidinones) to be tested dissolved in DMSO just before use.
To 1.0 ml of 0.2 mM Boc-AAPAN in a cuvette, 0.01-0.1 ml of DMSO with or without inhibitor was added. After mixing, a measurement was taken at 410 mµ to detect any spontaneous hydrolysis due to presence of test compound. 0.05 Milliliters of PMN extract was then added and the ΔOD/min at 410 mµ was measured and recorded. Beckman model 35 spectrophotometer was used.
Results were expressed to the nearest thousand k obs/I which is the second order rate constant in per mole per second for inactivation of the enzyme.
The elastase activity in the crude PMN extract may vary from one preparation to another. A control of each new batch is run, and the volume added in the assay procedure is adjusted according to activity.

neutrophil elastase (NE) = target: T2, neutrophil elastase (NE) (Homo sapiens, UniProt P08246, DEL174-181); test: NE activity in cellular SCN model (tet-off HL-60 cells expressing del.145-152 mutant NE); assay type: cell-based; conditions: human promyelocytic tet-off HL-60 cells
T2 construct: The ratio of normal-to-mutant NE products is approximately 1:1; expressed in transfected cells; host or cells: human promyelocytic tet-off HL-60 cells
T2 sequence (P08246 with tags, fused parts or gaps DEL174-181): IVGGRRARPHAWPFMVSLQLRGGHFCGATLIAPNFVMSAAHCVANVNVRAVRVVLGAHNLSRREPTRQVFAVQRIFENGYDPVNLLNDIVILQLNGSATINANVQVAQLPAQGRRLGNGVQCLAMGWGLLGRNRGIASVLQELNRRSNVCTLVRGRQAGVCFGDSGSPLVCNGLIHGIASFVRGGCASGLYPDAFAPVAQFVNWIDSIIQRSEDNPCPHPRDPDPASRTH
T2 sequence (P08246 30-267): T1 sequence (P08246 30-267)
Source text: (§1) We have established a model of SCN with doxycycline-regulated expression of del.145-152 mutant NE in human promyelocytic tet-off HL-60 cells. The ratio of normal-to-mutant NE products is approximately 1:1, which is expected in SCN patients with heterozygous mutation. […] The reduced cell growth and accelerated apoptosis were also observed in response to mutNE expression. Thus, this cellular model of SCN appears to closely recapitulate the human phenotype.

[2] = test system: HL-60 cells expressing the del.145-152 mutNE; test: Cell growth and myeloid differentiation of HL-60 cells expressing del.145-152 mutNE; assay type: cell-based, human; conditions: HL-60 cells expressing del.145-152 mutNE treated with compound
Source text: as §1

[3] = test system: control cells expressing normal elastase; test: Growth rate of control cells expressing normal elastase; assay type: cell-based, human; conditions: inhibition of NE activity
Source text: as §1

Row | kinact/KI [1] [M⁻¹ s⁻¹] | Structure (SMILES) | further results
1 | 1.7e+06 | CCC[C@@H](NC(=O)C1C(=O)C(CC)(CC)[C@@H]1Oc1ccc(C(=O)N2CCN(C)CC2)cc1)c1ccc(C)cc1 (stereo partly shown) [Compound 242] | inhibition of the NE activity (neutrophil elastase (NE)): more than 80%; cell growth [2]: complete restoration of cell growth; myeloid differentiation [2]: increased myeloid differentiation; growth rate of control cells [3]: did not reduce the growth rate
2 | 7.49e+06 | CCC[C@@H](NC(=O)C1C(=O)C(CC)(CC)[C@@H]1Oc1ccc(C(=O)N2CCN(c3ccc(F)cc3)CC2)cc1)c1ccc(C)cc1 (stereo partly shown) [Compound 243] | 
3 | 2.45e+06 | CCC[C@@H](NC(=O)C1C(=O)C(CC)(CC)[C@@H]1Oc1ccc(C(=O)N2CCN(c3cccc(Cl)c3)CC2)cc1)c1ccc(C)cc1 (stereo partly shown) [Compound 244] | 
4 | 5.28e+06 | CCC[C@@H](NC(=O)C1C(=O)C(CC)(CC)[C@@H]1Oc1ccc(C(=O)N2CCN(c3ccccc3)CC2)cc1)c1ccc(C)cc1 (stereo partly shown) [Compound 245] | 
5 | 5.17e+06 | CCC[C@@H](NC(=O)C1C(=O)C(CC)(CC)[C@@H]1Oc1ccc(C(=O)N2CCN(Cc3ccccc3)CC2)cc1)c1ccc(C)cc1 (stereo partly shown) [Compound 246] | 
6 | 1.1e+06 | CCC[C@@H](NC(=O)C1C(=O)C(CC)(CC)[C@@H]1Oc1ccc(C(=O)N2CCNCC2)cc1)c1ccc(C)cc1 (stereo partly shown) [Compound 247] | 
7 | 2.39e+06 | CCC[C@@H](NC(=O)C1C(=O)C(CC)(CC)[C@@H]1Oc1ccc(C(=O)N2CCN(C(C)C)CC2)cc1)c1ccc(C)cc1 (stereo partly shown) [Compound 248] | 
8 | 2.48e+06 | CCC[C@@H](NC(=O)C1C(=O)C(CC)(CC)[C@@H]1Oc1ccc(C(=O)N2CCN(CC(C)C)CC2)cc1)c1ccc(C)cc1 (stereo partly shown) [Compound 249] | 
9 | 2.32e+06 | CCC[C@@H](NC(=O)C1C(=O)C(CC)(CC)[C@@H]1Oc1ccc(C(=O)N2CCN(CC)CC2)cc1)c1ccc(C)cc1 (stereo partly shown) [Compound 252] | 
10 | 1.77e+06 | CCC[C@@H](NC(=O)C1C(=O)C(CC)(CC)[C@@H]1Oc1ccc(C(=O)N2CCN(CCC)CC2)cc1)c1ccc(C)cc1 (stereo partly shown) [Compound 253] | 
11 | 2.14e+06 | CCC[C@@H](NC(=O)C1C(=O)C(CC)(CC)[C@@H]1Oc1ccc(C(=O)N2CCN(c3ncccn3)CC2)cc1)c1ccc(C)cc1 (stereo partly shown) [Compound 254] | 
12 | 3.59e+06 | CCC[C@@H](NC(=O)C1C(=O)C(CC)(CC)[C@@H]1Oc1ccc(C(=O)N2CCN(C3CC3)CC2)cc1)c1ccc(C)cc1 (stereo partly shown) [Compound 256] | 

Source: patent US8283344B2, “Method of treating inherited severe neutropenia” (Merck & Co., Inc., priority 2007, dated 2012)
